Bridges are numbered along the chain shown (N, C = ends). Where no end group is shown, it is not given here.
Test system: H-125 cells (Non-Small Lung Cell Cancer)
Test: antitumor effect in human tumors implanted in nude mice
Type: in vivo, BalbC nude mice
Conditions: H-125 subcutaneous, 1 to 10 mg/Kg every other day for one month, FIG. 6
Description: For these experiments, 6-8 week old female BalbC nude mice were used. The tumor implantation was performed using H-125 cells (Non-Small Lung Cell Cancer) that were resuspended in saline solution (PBS) at 1000 000 cells/ml. Cell suspension was inoculated subcutaneously in the abdomen. Peptide administration (sequence 1 on the list) was made together with the cells and continued every other day until completing one month of treatment. In this assay, doses ranging between 1 and 10 mg/Kg of weight were evaluated. To examine the antitumor effect, parameters like tumor mass and survival of the animals were evaluated.

CSVRQGPVQKC (disulfide 1-11 (inferred)) [sequence 1 on the list]
inhibition of tumor progression: effective in terms of the inhibition of tumor progression

From patent US7947287B2, “Peptides for the treatment of cancer associated with the human papilloma virus (HPV) and other epithelial tumors” (Centro de Ingenieria Genetica y Biotecnolgia, priority 2001, dated 2011)
